In the NIST ThermoML archive (doi:10.1016/j.tca.2006.01.013):

Test: xn = mol fraction of the nth substance listed
Conditions: 101 kPa, Liquid, Vibrating tube method

NCCN [ethane-1,2-diamine] + O
mass density [kg/m3]
Conditions	288.15 K	293.15 K	298.15 K	303.15 K	308.15 K	313.15 K	318.15 K
x2 = 0.0401	905.79	901.13	896.45	891.76	887.06	882.34	877.6
x2 = 0.0797	909.79	905.15	900.49	895.82	891.14	886.43	881.71
x2 = 0.1199	914.18	909.56	904.92	900.27	895.6	890.91	886.2
x2 = 0.1598	918.88	914.28	909.66	905.03	900.38	895.71	891.01
x2 = 0.2003	923.88	919.29	914.69	910.07	905.43	900.77	896.09
x2 = 0.25	930.08	925.52	920.93	916.33	911.71	907.07	902.4
x2 = 0.2999	936.78	932.23	927.67	923.08	918.47	913.84	909.18
x2 = 0.3497	944.11	939.57	935.02	930.44	925.84	921.21	916.56
x2 = 0.3998	951.74	947.2	942.65	938.08	933.48	928.86	924.21
x2 = 0.4504	959.71	955.18	950.64	946.07	941.48	936.86	932.22
x2 = 0.5001	967.93	963.41	958.87	954.3	949.72	945.1	940.46
x2 = 0.5499	976.43	971.92	967.39	962.83	958.26	953.66	949.04
x2 = 0.5998	984.56	980.1	975.61	971.09	966.55	961.99	957.4
x2 = 0.6499	991.92	987.54	983.14	978.72	974.26	969.77	965.25
x2 = 0.7004	998.03	993.83	989.6	985.34	981.04	976.7	972.33
x2 = 0.7499	1001.68	997.76	993.81	989.81	985.76	981.67	977.53
x2 = 0.8	1002.5	999	995.45	991.83	988.16	984.43	980.63
x2 = 0.84	1001.38	998.31	995.17	991.96	988.67	985.31	981.87
x2 = 0.88	999.21	996.66	994.01	991.27	988.42	985.47	982.43
x2 = 0.9193	997.06	995.08	992.96	990.71	988.32	985.81	983.17
x2 = 0.9599	996.39	995.01	993.42	991.65	989.7	987.59	985.32
